Here are results for one molecule from patent US20190008819A1, “Methods and Compositions Using Cetyl Myristoleate (CMO) In Medical Treatments” (priority 2017, published 2019).

Assay type in all cases: in vivo, human
The test system of assay [1] is middle age person with complex regional pain syndrome. Kind of assay: Case report: complex regional pain syndrome with post-surgery pain. On the procedure: A middle age person with complex regional pain syndrome had post-surgery pain. It was so severe that the person was to have foot amputation for the pain. A dosage of 0.1 milligrams to 10 grams of cetyl myristoleate once to four times per day was administered to the person. Shortly, the person described the pain decreased by 20-30 percent.

The test system of assay [2] is middle age person with cervical post-surgery syndrome. Kind of assay: Case report: cervical post-surgery syndrome. Conditions: 0.1 milligrams to 10 grams cetyl myristoleate once to four times per day; one patient. An excerpt: A middle age person experienced cervical post-surgery syndrome.
Assay [3] concerns middle age person with knee pain. Kind of assay: Case report: knee pain, CMO with gabapentin. Conditions: 0.1 milligrams to 10 grams cetyl myristoleate once to four times per day with appropriate dosage gabapentin; one patient. An excerpt:
A middle age person was taking a brief CMO regime for knee pain.

The test system of assay [4] is middle age person with shoulder pain. Kind of assay: Case report: shoulder pain, CMO with gabapentin. Particulars: 0.1 milligrams to 10 grams cetyl myristoleate once to four times per day with an effective dosage gabapentin; one patient. From the text: A middle age person was taking a brief CMO regime for shoulder pain.

Regarding `CCCC/C=C\CCCCCCCC(=O)OCCCCCCCCCCCCCCCC` [cetyl myristoleate, cis-9-Cetyl myristoleate], the “pain decreased (patient described)” value in assay [1] (0.1 milligrams to 10 grams cetyl myristoleate once to four times per day, one patient, post-surgery pain) was 20-30%. Further, the amputation outcome in assay [1] (patient was to have foot amputation for the pain, 0.1 milligrams to 10 grams once to four times per day) is recorded as “has not undergone amputation”. The “post-laminectomy syndrome (PLS)” value in assay [2] is given as “improved significantly”. Further, the knee pain result in assay [3] was “decreased dramatically”. The shoulder pain result in assay [4] is recorded as “decreased dramatically”.
